# Assay results published in ChEMBL document CHEMBL1157539, “Thousands of chemical starting points for antimalarial lead identification” (Nature, 2010).
# System: Plasmodium falciparum
# Assay: GSK_TCMDC: Inhibition of Plasmodium falciparum 3D7 in whole erythrocytes, using parasite LDH activity as an index of growth.
# Assay type: functional, organism-based
# Conditions: not given
row,Structure (SMILES),XC50
1,COc1ccc2nccc([C@@H](O)CN3CCC(NCc4nc5c(cc4Cl)SCC(=O)N5)C(F)C3)c2c1 (stereo not given in full),759 nM

# Same assay, conditions: Plasmodium falciparum, 3D7
row,Structure (SMILES),XC50
1,CN1CCC(NCc2cccc(-c3ccc(S(=O)(=O)NCCc4ccccn4)cc3)c2)CC1,827 nM
2,CCCC(CNCc1ccccc1)CNc1cc(=O)c2ccccc2[nH]1 (stereo not given),1020 nM
3,CCCN1CCN(CCCNc2c3ccccc3nc3ccccc23)CC1,547 nM
4,Cc1c(C(C)(C)C)ccc2nc(N)nc(N)c12,8.73 nM
5,CN(C)c1ccc(C2(c3ccccc3)N=C(N)N(CCCc3ccccc3)C2=O)cc1 (stereo not given),971 nM
6,CNCCNc1nccc(N2CCc3ncnc(Nc4ccc(OCc5cccc(F)c5)c(Cl)c4)c3C2)n1,197 nM
7,COc1cc(N)c(Cl)cc1C(=O)NC1CCC(NCC2CCCCC2)CC1 (stereo not given),426 nM
8,O=C(Nc1cccc(CN2CCCN(Cc3cccc(F)c3)CC2)c1)c1ccc(Cl)c(Cl)c1,923 nM
9,Cn1cc(CN2CCCC(COC(c3ccccc3)c3ccccc3)C2)cn1 (stereo not given),775 nM
10,COc1c(C2CCN(CCCCNC(=O)c3ccc(-c4ccc(C(F)(F)F)cc4)c(C(=O)OC(C)C)c3)CC2)ccc2c1CCCC2,858 nM
11,CS(=O)(=O)CCNCc1ccc(-c2ccc3c(Nc4ccc(F)cc4Cl)ccnc3c2)o1,744 nM
12,CC(=O)c1ccc2cc(C(=O)NC3CCC(CCN4CCc5ccc(-c6noc(C)n6)cc5CC4)CC3)[nH]c2c1 (stereo not given),946 nM
13,COc1ccc(NC(=O)Nc2nc3ccccc3s2)cc1N1CCN(C)CC1,703 nM
14,Cc1cc(O)c(CN(C)Cc2ccc(N(C)C)cc2)cc1C(C)C,550 nM
15,CC(C)(C)c1ccc(CN2CCCCC(NC(=O)c3cc(-c4cccc(Cl)c4)cs3)C2)cc1 (stereo not given),999 nM
16,O=S(=O)(Nc1cc2c(cc1OCc1ccccc1)CCN(C1CCC1)CC2)c1ccc(-c2ccc(Cl)cc2)cc1,1140 nM
17,COc1ccc(-c2nc(NC(=O)Cc3coc4cc(OC)ccc34)sc2C)cc1,609 nM
18,O=C(N[C@H]1CCN(Cc2ccc(OCCN3CCNCC3)c(Br)c2)C1)c1ccc(Cl)c(Cl)c1,484 nM
19,CC(C)NCc1ccc(-c2cccc(NC(=O)c3cccc(Cl)c3)c2)cc1,728 nM
20,O=C(N[C@@H](Cc1ccccc1)C(=O)NCCN1CCOCC1)c1ccc(O)c(-c2ccc(Cl)c(Cl)c2)c1,921 nM
21,CC(C)COc1ccc(Cl)cc1Cc1ccc(-c2nc3cc(CCN(C)C)ccc3[nH]2)o1,982 nM
22,O=C(Nc1ccc(Oc2ccccc2)cc1)N1CCC(CCN2CCC(c3c[nH]c4ccccc34)CC2)CC1,795 nM
23,N=C(N)NC(=O)Nc1cc(Cl)c(Cl)c(Cl)c1,588 nM
24,CCCc1ccc(Nc2nc(C)cc(N(CC)CCCN3CCCCC3)n2)cc1,543 nM

row,Structure (SMILES),XC50
1,O=C(C=Cc1ccc(Cl)c(Cl)c1)NCCCCCN1CCC(CCNC(=O)c2ccc3c(c2)OCO3)CC1,693 nM
2,CC(C)C[C@H](NC(=O)c1cc2ccccc2s1)C(=O)N[C@H]1CCN(Cc2ccc(OC[C@@H]3CCCN3C)c(Cl)c2)C1,853 nM
3,O=C(Nc1ccc(N2CCNCC2)cc1)c1ccn2ncc(-c3cccc(Cl)c3)c2n1,922 nM
4,CCCCN(CCCC)CCCCCCNc1c2ccccc2nc2ccccc12,776 nM
5,COc1ccc2nccc([C@@H](O)CN3CCC(NCc4cc5oc(=O)[nH]c5cc4F)CC3)c2c1,774 nM
6,Cc1cc(C(=O)Nc2ccc3c(ccn3C3CCCN(Cc4ccc(C(F)(F)F)cc4F)CC3)c2)no1 (stereo not given),765 nM
7,O=C(NCCCCCN1CCC(c2c[nH]c3ccccc23)CC1)Nc1ccc(I)cc1,991 nM
8,CC(=O)Nc1nc(C(=O)Nc2cccc(-c3ccc4c(cnn4CC4CC4)c3)c2)cs1,735 nM
9,COc1ccc(CNCc2ccccc2)cc1-c1cccc(S(=O)(=O)NCCN2CCCC2)c1,786 nM
10,Cc1ccc(Nc2nc(C)cc(N3CCN(c4ccccc4)CC3)n2)cc1,1530 nM
11,Cc1cc(N2CCCC2=O)ccc1-c1ccc(C(=O)N2CCC(Oc3cccc(Cl)c3)CC2)cc1,427 nM
12,O=C(NC1CCCCC1)N(Cc1ccc(-c2ccc(CNCc3ccc4c(c3)OCO4)cc2)cc1)C1CCN(Cc2ccccc2)CC1,690 nM
13,CCNc1cc(C(=O)N[C@@H](Cc2ccccc2)[C@H](O)CNCc2cc(OC)cc(OC)c2)cc(N2CCCS2(=O)=O)c1,43 nM
14,O=C(Nc1ccc(CCN2CCC(c3nc(COCC(F)(F)F)c(-c4ccccc4)o3)CC2)cc1)c1ccc(F)cc1,1970 nM
15,CN1CCN(CCCN(C(=O)Nc2cc(C(F)(F)F)cc(C(F)(F)F)c2)c2ccccc2Cc2ccccc2)CC1,1130 nM
16,CSc1ccc(CN2CCC(NC(=O)c3ccc(-c4ccc(N(C)C)cc4)s3)CC2)cc1,1500 nM
17,O=C(Nc1ccc(OC2CCN(Cc3ccc(F)cc3)CC2)cc1)c1cccs1,969 nM
18,O=S(=O)(NCCN1CCCC1)c1cccc(-c2cccc(CNCc3ccc(F)cc3)c2)c1,848 nM
19,COc1cccc(C2(c3cccc(OC)c3)N=C(N)N(CCCc3ccccc3)C2=O)c1,260 nM
20,CCOC(=O)C(C)(C)Oc1ccc(C(=C2CC(C)(C)CC(C)(C)C2)c2ccc(O)cc2)cc1,1130 nM
21,COc1ccc2nccc([C@@H](O)CN3CCC(NC(=O)c4ccc(Cl)c([N+](=O)[O-])c4)CC3)c2c1,954 nM
22,CCCCCCP(=O)(COc1ccc(CCN(CC(O)COc2cccc3[nH]c(C(N)=O)cc23)CC(O)COc2cccc3[nH]c(C(N)=O)cc23)cc1)OCCCC (stereo not given),724 nM
23,CCCC(C)NC(=O)c1cnn(-c2ccc(C(C)(C)C)cc2)c1OCc1ccc(Br)cc1 (stereo not given),1060 nM
24,NC(=O)c1cccc(-n2ccc3cc(CNC4Cc5ccccc5C4)ccc32)c1,1130 nM

row,Structure (SMILES),XC50
1,COc1ccc(-c2ccc(NC(=O)c3cccs3)cc2)cc1CN1CCCN(C)CC1,964 nM
2,CCN(CC)CCCC(C)Nc1ccnc2ccc(-c3ccccc3)cc12 (stereo not given),652 nM
3,CC(=O)c1ccc(NC(=O)Nc2ccc(N(C)c3ccnc(Nc4cccc(CS(C)(=O)=O)c4)n3)cc2)cc1,122 nM
4,O=C(Nc1ccc(-c2nc3ccccc3[nH]2)cc1)c1ccc(S(=O)(=O)N2CCCCCC2)cc1,411 nM
5,CCCCNc1ccc(C(=O)NC2CCN(C[C@H](O)c3ccnc4ccc(OC)cc34)CC2)cc1,442 nM
6,O=C(C1CCN(C(c2ccccc2)c2ccc(Cl)c(Cl)c2)CC1)N1CC=CC1 (stereo not given),725 nM
7,N#Cc1cccc(CNC(=O)c2cccc(Nc3ccnc4ccc(F)cc34)c2)c1,987 nM
8,Cc1onc(-c2ccccc2)c1-c1nc(NCCC(c2ccccc2)c2ccccc2)no1,835 nM
9,CC(C)c1ncc(-c2ccncc2)c(C2CCC(CNC(=O)c3cccnc3)CC2)n1 (stereo not given),776 nM
10,CC[C@H](C)CNC(=O)c1cncc(-c2ccc(CN(C)C3CCN(C)CC3)cc2)c1,987 nM
11,CCCCC(=O)Nc1ccc(Nc2nc(C)cc(N3CCCC3)n2)cc1,1060 nM
12,C=CCOc1ccc(CNC2CCN(Cc3ccccc3)CC2)cc1Br,1420 nM
13,N#Cc1ccc2[nH]cc(-c3cn4cc(SC5CCCC5)ccc4n3)c2c1,942 nM
14,O=C(NC12CC3CC(CC(C3)C1)C2)C(=O)c1c[nH]c2ccccc12,232 nM
15,c1ccc(Oc2ccc(Nc3ccnc4cc(-c5ccc(CN6CCNCC6)o5)ccc34)cc2)nc1,243 nM
16,O=C(NCCCN1CCC(NC(=O)c2ccc(-c3cccnc3)cc2)CC1)c1ccc(Cl)c(Cl)c1,854 nM
17,C=C(C)Cn1cc(C2CCN(CCN3CCC(CNC(=O)c4ccc(-c5ccc(C#N)cc5)cc4)CC3)CC2)c2ccccc21,433 nM
18,O=C(C=Cc1ccc(Cl)c(Cl)c1)NCCCCCN1CCCC(CCCNS(=O)(=O)c2cccc3cccnc23)C1 (stereo not given),1000 nM
19,Oc1ccc(-c2ccccc2)cc1CN1CCCCCC1,1170 nM
20,COc1cc2nc(N3CCN(C(=O)c4ccc(N(C(=O)OC(C)(C)C)C(=O)OC(C)(C)C)cc4)CC3)nc(N)c2cc1OC,1000 nM
21,Cc1cc2nc(N/C(N)=N/C(=O)NC3CCCCC3)nc(C)c2cc1C,754 nM
22,CCc1c(C)nc(-n2nc(C)cc2NC(=O)c2ccc(OC)cc2OC)[nH]c1=O,827 nM
23,Oc1ccccc1N1CCN(c2ccc(-c3nc4ccccc4[nH]3)cn2)CC1,1130 nM
24,CN(C)S(=O)(=O)c1ccc(N2CCN(CCC3(c4cccc(F)c4)CCN(C(=O)C(C)(C)C)CC3)CC2)c2nonc12,697 nM

row,Structure (SMILES),XC50
1,COc1ccc2nccc([C@@H](O)CN3CCC(NCc4nc5c(cc4Cl)SCC(=O)N5)C(F)C3)c2c1 (stereo not given in full),505 nM
2,OC(c1nnc(S)n1-c1ccccc1)C(O)c1nnc(S)n1-c1ccccc1 (stereo not given),741 nM
3,O=C(Nc1ccc(N2CCCN(Cc3cccc(F)c3)CC2)cc1)c1cccs1,546 nM
4,COc1ccc2nccc(NC(=O)C3CCC(NCc4cnc(SC)c([N+](=O)[O-])c4)CC3)c2n1 (stereo not given),927 nM
5,CCC(C)c1ccc(NC(=O)c2ccc(S(=O)(=O)Nc3ccc(OC)c(N4CCN(CC5CC5)CC4)c3)cc2)cc1 (stereo not given),703 nM
6,N=C(N)Nc1nc(CCCCCCCCc2csc(NC(=N)N)n2)cs1,598 nM
7,O=C(Nc1ccc(-c2nc3cc4ccccc4cc3[nH]2)cc1)c1cccc(Br)c1,363 nM
8,CC1(C)NC(N)=NC(=N)N1OCc1cccc(Cl)c1Cl,3.2 nM
9,CC[C@]1(C)C[C@@H](NC(=O)NC(=O)c2ccc(OC)cc2)[C@]2(C)[C@H](C)CC[C@]3(CCC(=O)[C@H]32)[C@@H](C)[C@@H]1OC(=O)NC(=O)c1ccc(OC)cc1,987 nM
10,CN(Cc1cccc(C#N)c1)C1CCN(c2cc(NC(=O)c3ccc(F)cc3)ccn2)CC1,1070 nM
11,CC(Cc1ccc(OCCOc2ccccc2)cc1)NCC(O)c1cccc(C(F)(F)F)c1 (stereo not given),968 nM
12,COc1ccc2nccc([C@@H](O)CN3CCC(NCCOc4cccc(F)c4F)CC3)c2c1,244 nM
13,O=C(/C=C/c1ccc([N+](=O)[O-])cc1)N1CCC(NS(=O)(=O)c2ccc(F)cc2)CC1,824 nM
14,CC(C)c1ccc2oc(-c3ccc(NC(=O)c4ccc([N+](=O)[O-])o4)cc3)nc2c1,340 nM
15,Cn1c(N)cc(-c2ccc(Br)cc2)c2c(=O)nc(N)nc1-2,1130 nM
16,Cc1ccc(C2CCN(CCCCNC(=O)c3ccc(NC(=O)c4ccc(Cl)cc4)cc3)CC2)c(C)c1,842 nM
17,CN1CCCN(Cc2cccc(-c3ccc(NC(=O)c4cccc(C#N)c4)cc3)c2)CC1,723 nM
18,COc1ccc2[nH]cc(C3CC4CCC(C3)N4CCC3CCN(C(=O)/C=C/c4ccc(Cl)c(Cl)c4)CC3)c2c1 (stereo not given),624 nM
19,COc1ccc(Nc2nc(N)c3cc(OC)c(OC)cc3n2)cc1OC,732 nM
20,CC(C)C[C@H](NC(=O)c1cc2ccccc2s1)C(=O)N[C@H]1CCN(Cc2ccc(OC[C@@H]3CCCN3C)c3ccccc23)C1,1160 nM
21,NC(=O)C1CCN(Cc2ccc(-c3ccc(-c4nc5cc(C(F)(F)F)ccc5[nH]4)s3)cc2)CC1,540 nM
22,COc1ccc(CNC(=O)NC2CCN(c3ccnc(Nc4ccc(F)cc4)n3)CC2)cc1,1050 nM
